# Earlier results, collected in US11083704B2, “Method of administering nitroxyl donating compounds” (Cardioxyl Pharmaceuticals, Inc., priority 2017, dated 2021).
# Assays:
# [1] = preclinical models and Phase I/IIa studies
# [2] = healthy patients and patients hospitalized with advanced heart failure
compound,measurement,setting,value
Cc1ccc(S(=O)(=O)NO)o1 [N-hydroxy-5-methylfuran-2-sulfonamide],inotropy,[1],increased inotropy
same,lusitropy,[1],improved lusitropy
same,vasodilation,[1],peripheral vasodilation
same,safety and tolerability of infusions,[2],safe and well-tolerated
